Positions of bridges follow the written chain, without caps; N, C: chain ends. No end group written: not given here.
What was measured:
[1] = system: Dextran Sodium Sulphate (DSS) Induced Colitis Model in Mice; assay: Acute 10-day DSS induced colitis model, hBD-2-albumin fusion N-terminal (Example 8); format: in vivo; details: fusion iv or sc daily; DEX 1 mg/kg sc OD
Method: “hBD-2-albumin N-terminal” was administered intravenously via the tail vein or subcutaneously with the use of a sterile 25 G needle in a dosing volume of 10 ml/kg body weight. The animals received 1 dose daily for 10 executive days.

C57Bl/6J DIO male mice = assay: GLP-1 analog (liraglutide) treatment of high fat diet fed DIO mice (Example 5); format: in vivo; details: 0.2 mg/kg BID subcutaneously, 4 weeks
From the text: FIG. 31: Schematic outline of the experimental set up for investigating the effects of a GLP-1 analog (Liraglutid) on mouse gut inflammation and microbiota. At week −40, the C57/BI/6J DIO mice arrived. The mice were fed a high fat diet 60% fat, SSNIFF (Diet #D12492) or purina chow for 38 weeks to achieve an average body weight of 55 gram. From week −2 the mice were single housed. Faecal samples were collected on day −1 and 27 for 16S RNA analysis. Samples from ilium were collected 2 cm from caecum at day 28.
4 weeks old C57Bl/6J DIO male mice were fed a high fat diet (HFD 60% fat, SSNIFF (Diet #D12492)) or purina chow for […]. The HFD fed group had reached an average weight of approximately 55 grams by start of intervention. The mice were group housed 10 per cage until week −2. From week −2 the mice were single housed throughout the study. Feed intake was registered daily just before lights were turned off at 3 pm. Individual mice were subjected to experimental procedures in altered order both group and cage wise. Mice were kept at room temperature under a 12-hour light/dark cycle at SPF standard conditions.
Mice were fed either a high fat diet (HFD) or a low fat (LF) control diet. The HFD contained 2 subgroups; 1 GLP-1 analog and 1 standard HFD without supplementation of GLP-1 analog. The GLP-1 analog liraglutide was dissolved in PBS and 0.1% BSA was added. The GLP-1 analog was administered at 0.2 mg/kg BID subcutaneously.

[2] = system: Dextran Sodium Sulphate (DSS) Induced Colitis Model in Mice; assay: Acute 10-day DSS induced colitis model, hBD-2-albumin fusion C-terminal (Example 9); format: in vivo; details: Pred 1 mg/kg orally daily
Method: “hBD-2-albumin C-terminal” was administered intravenously via the tail vein or subcutaneously with the use of a sterile 25 G needle in a dosing volume of 10 ml/kg body weight. The animals received 1 dose daily for 10 […] days. The active control Prednisolone (Pred) was given orally by gavage at a dose of 1 mg/kg in a dosing volume of 10 ml/kg body weight OD.

[3] = Pharmacokinetics of hBD-2 after single oral gavage (Example 6); format: in vivo, NMRI mice; details: oral dosing of 4 mg/kg in mice
Method: FIG. 35. Pharmacokinetic data following oral administration of 4 mg/kg hBD-2 to female NMRI mice. […] The results are given as group mean+/−SEM.
21 female NMRI mice were dosed by oral gavage 5 ml/kg using a gavage tube and a 1 ml syringe according to the individual body weight obtained on the day of dosing. Urine was strived sampled at random time points by gently massaging the inguinal area of the abdomen. The first blood sample was taken using a submandibular sampling method. The second blood sample was collected from Isoflurane anaesthetised mice. Intestinal samples were taken after euthanasia. The abdomen of each mouse was opened and three sections of the intestines were sampled.

[4] = Pharmacokinetics of hBD-2 and hBD-2-albumin fusions after subcutaneous or intravenous administration (Example 7); format: in vivo, NMRI female mice; details: hBD-2 1 mg/kg
Method: FIG. 36. Pharmacokinetic data for hBD-2 following subcutaneous (SC) and intravenous (IV) administration of 1 mg/kg respectively. […] The different curves represent different experiments and detection methods (HPLC and ELISA).
FIG. 37. Pharmacokinetic data for “hBD-2-albumin fusion N-terminal” following subcutaneous and intravenous administration of 16.5 mg/kg respectively. […] The results are the mean of 4 mice/sampling time+/−SD.
FIG. 38. Pharmacokinetic data for “hBD-2-albumin fusion C-terminal” following subcutaneous and intravenous administration of 16.5 mg/kg respectively. […] The results are the mean of 4 mice/sampling time+/−SD.
The animals were dosed 10 ml/kg of stock concentration of 1.65 mg/ml according to the individual body weight (300 μL for a 30 gram mouse). First blood sample was taken using a submandibular sampling method and the second following Isoflurane anaesthesia and euthanasia.

[5] = degradation by dipeptidyl peptidase-4; cited from earlier work
isolated hepatocytes = details: Liu et al. (2008); cited from earlier work
[6] = compared to untreated HFD reference group

C[C@@H]1C[C@H]2[C@@H]3CCC4=CC(=O)C=C[C@]4(C)[C@@]3(F)[C@@H](O)C[C@]2(C)[C@@]1(O)C(=O)CO [DEX, Dexamethasone]
body weight [1]: very significant decrease in body weight from day 5 onwards
histological damage of colonic tissue [1]: failed to significantly reduce histological injury

CCCCCCCCCCCCCCCC(=O)N[C@@H](CCC(=O)NCCCC[C@H](NC(=O)[C@H](C)NC(=O)[C@H](C)NC(=O)[C@H](CCC(N)=O)NC(=O)CNC(=O)[C@H](CCC(=O)O)NC(=O)[C@H](CC(C)C)NC(=O)[C@H](Cc1ccc(O)cc1)NC(=O)[C@H](CO)NC(=O)[C@H](CO)NC(=O)[C@@H](NC(=O)[C@H](CC(=O)O)NC(=O)[C@H](CO)NC(=O)[C@@H](NC(=O)[C@H](Cc1ccccc1)NC(=O)[C@@H](NC(=O)CNC(=O)[C@H](CCC(=O)O)NC(=O)[C@H](C)NC(=O)[C@@H](N)Cc1cnc[nH]1)[C@@H](C)O)[C@@H](C)O)C(C)C)C(=O)N[C@@H](CCC(=O)O)C(=O)N[C@@H](Cc1ccccc1)C(=O)N[C@H](C(=O)N[C@@H](C)C(=O)N[C@@H](Cc1c[nH]c2ccccc12)C(=O)N[C@@H](CC(C)C)C(=O)N[C@H](C(=O)N[C@@H](CCCNC(=N)N)C(=O)NCC(=O)N[C@@H](CCCNC(=N)N)C(=O)NCC(=O)O)C(C)C)[C@@H](C)CC)C(=O)O [GLP-1 analog, liraglutide]
liver weight at termination vs chow fed mice (C57Bl/6J DIO male mice): not statistically significantly different
body weight lost (C57Bl/6J DIO male mice; [6]): 25-30%
body weight lost (average) (C57Bl/6J DIO male mice; [6]): 15 gram
plasma cholesterol level vs HFD reference group (C57Bl/6J DIO male mice; p<0.01): statistically significantly lower

C[C@]12C=CC(=O)C=C1CC[C@@H]1[C@@H]2[C@@H](O)C[C@@]2(C)[C@H]1CC[C@]2(O)C(=O)CO [Pred, Prednisolone]
histological injury, proximal part of the colon [2]: failed to significantly reduce histological injury in the proximal part of the colon
histological injury, distal colon ([2]; p<0.01): did reduce the injury in the distal colon
DAI ([2]; p<0.05): significant inhibition of the DAI on day 9

GIGDPVTCLKSGAICHPVFCPRRYKQIGTCGLPGTKCCKKP (disulfide 8-37, 15-30, 20-38) [hBD-2, human beta defensin 2]
systemic availability after oral dosing [3]: not systemically available
renal clearance [4]: 10 mL/min

Glucagon-like peptide-1 [GLP-1]
half-life in the circulation [5]: less than 2 minutes

human neutrophil peptide 1 [HNP-1]
glycogenolysis and gluconeogenesis (isolated hepatocytes): able to inhibit glycogenolysis and gluconeogenesis in isolated hepatocytes

human neutrophil peptide 2 (CYCRIPACIAGERRYGTCIYQGRLWAFCC; listed as Homo sapiens) [HNP-2, alpha defensin produced by leucocytes]
glycogenolysis and gluconeogenesis (isolated hepatocytes): able to inhibit glycogenolysis and gluconeogenesis in isolated hepatocytes
